Read-outs that look alike come from different tables or passages of the source.
Assays:
[1] = test system: Wistar rats, PAN-induced nephropathy; conditions: rat, in vivo
From the text: The aim of this study was to evaluate the effects of XG-102 on chronic puromycine aminonucleoside-induced nephropathy in rats during 56 days. Puromycin aminonucleoside (PAN) is a podocyte toxin inducing a loss and fusion of podocytes foot processes. PAN-induced nephropathy is a well-described model of human idiopathic […] syndrome and focal segmental glomerulosclerosis ([…], 2008). The glomerular morphologic changes seen in rats with PAN nephrosis closely resemble those in human minimal change disease (MCD) and focal segmental glomerulosclerosis (FSGS). Intraperitoneal administration of PAN in rats results in a rapid development of […] syndrome, characterized by proteinuria, hypoalbuminemia and hypercholesterolemia (acute phase). This is a well-established animal model of human MCD. […] The slides were stained by hematoxylin/eosin (HE), PAS-methenamine silver and Sirius Red for histological evaluation of morphological alterations, glomerulosclerosis and interstitial fibrosis quantification, respectively. […] Results are expressed by semi-quantitative scoring following to expert histopathologist evaluation. For the histological examination of glomerulosclerosis glomerular changes have been evaluated using a semi quantitative scoring system as described by […]. […] All data have been calculated as mean values±standard error of the mean (s.e.m.). […]

[2] = test system: patients after ocular surgery; assay: Clinical Phase II, post-surgery intraocular inflammation: safety; conditions: for AEs considered by the Investigator to be related to Dexamethasone / AEs considered by the Investigator to be related to XG-102: blinded assessment
Procedure: The criteria for evaluation of safety were: • a. Visual acuity by ETDRS method • b. Slit Lamp examination findings • c. The results of the ophthalmic fundus examination • d. Intra Ocular Pressure (IOP) measurements • e. Vital signs (blood pressure (BP), pulse rate (PR) and rhythm) • f. The results of the hematology and chemistry laboratory tests • g. The occurrence of Adverse Events • h. Presence (or not) of XG-102 in plasma 1 hour after the administration of study treatment in a subset of patients (approximately 30).
An AE is therefore any unfavorable and unintended sign, symptom or disease temporally associated with the use of a medicinal product, whether or not considered related to the medicinal product.
A Suspected Unexpected Serious Adverse Reaction (SUSAR) was defined as a suspected adverse reaction related to the treatment that is both unexpected (i.e. not consistent with the expected outcomes of the study treatment being administered) and serious.
Patients were analyzed as treated, i.e. according to the treatment which they received. The safety set was the primary analysis set for the safety analysis.
The present study was a double-blind study. All patients who were randomized and for whom the sub-conjunctival injection was started are included in the safety analysis by dose group. […] If the study treatment eye drops were stopped prematurely (i.e. before day 21), the patients concerned continued follow-up until day 28, in accordance with the study protocol.
Investigators assessed (in a blinded manner) the relationship of each reported AE to any of the study treatments. An event was considered to be related to study treatment if the Investigator ticked either ‘possible’ or ‘probable’ as the reply to this question.

db/db mice = conditions: mouse, in vivo
From the text: i) Animals • A total of twenty (20) male db/db mice (8 weeks old) were obtained from Charles River (Germany). Upon arrival, animals were group housed (n=6-7/group) and offered regular rodent chow (Altromin standard #1324 chow; C. Petersen, Ringsted, Denmark) and water ad libitum unless otherwise stated. The mice were housed under a 12:12 L/D cycle (lights on at 4:00 and lights off at 16:00) and in temperature and humidity controlled rooms.
ii) Groups and Randomization • On day −4, mice were randomized according to blood glucose level (fasted; blood glucose measured on Biosen S line analyzer (EKF diagnostic, Germany) to participate in one of the following drug treatment groups (n=6): • 1) Vehicle control, S.C. (physiological saline) • 2) XG-102 (SEQ ID NO: 11); 1 mg/kg; s.c. • 3) XG-102 (SEQ ID NO: 11); 10 mg/kg; s.c • All doses listed were calculated for the free-base. […] All compounds were administered sub-cutaneously (s.c.) in a volume of 3 ml/kg. The formulation instructions for vehicle control and XG-102 (SEQ ID NO: 11) were as follows: • First, XG-102 (SEQ ID NO: 11) was dissolved in the vehicle. […]
i) Blood Glucose • Blood glucose was measured from 7 hour fasted animals 6 hours post dosing by collection of 10 μl blood samples from the tail-vein in hematocrite tubes and subsequent analysis on a Biosen s-line analyzer (EKF-diagnostic; Germany).

[3] = human, in vivo, 1 h
Procedure: The quantification (plasma) of XG-102 in plasma was evaluated in a subset of 32 patients located in one site. A venous blood sample (2 ml) was obtained using a Li-Heparin tube 60 minutes after sub-conjunctival administration of study treatment. The exact time when the sample was performed was entered in the space provided on the e-CRF. The blood sample was centrifuged for 10 minutes at 2,500 RPM at room temperature. After centrifugation, using a pipette, the plasma was transferred to two 1.5 ml cryotubes. The cryotubes were then placed in a freezer at −80° C. and were then subsequently sent in dry ice with a temperature data logger to the central laboratory responsible for the analysis. Upon receipt at the central laboratory, the samples were stored at −80° C. until analyzed.

Question: What does the source list for `CC(C)C[C@@H](NC(=O)[C@@H](Cc1ccccc1)NC(=O)[C@H]1CCCN1C(=O)[C@@H](CCC(N)=O)NC(=O)[C@H](NC(=O)[C@H]1CCCN1C(=O)[C@@H](CCCNC(=N)N)NC(=O)[C@@H](CO)NC(=O)[C@@H](CCC(N)=O)NC(=O)[C@H](N)CC(=O)O)C(C)C)C(=O)N[C@H](CC(N)=O)C(=O)N[C@H](CC(C)C)C(=O)N[C@@H](C(=O)N[C@@H](C(=O)N1CCC[C@@H]1C(=O)N[C@H](CCCNC(=N)N)C(=O)N[C@H](CCCCN)C(=O)N1CCC[C@@H]1C(=O)N[C@H](CCCNC(=N)N)C(=O)N1CCC[C@@H]1C(=O)N1CCC[C@@H]1C(=O)N[C@H](CCCNC(=N)N)C(=O)N[C@H](CCCNC(=N)N)C(=O)N[C@H](CCCNC(=N)N)C(=O)N[C@H](CCC(N)=O)C(=O)N[C@H](CCCNC(=N)N)C(=O)N[C@H](CCCNC(=N)N)C(=O)N[C@H](CCCCN)C(=O)N[C@H](CCCCN)C(=O)N[C@H](CCCNC(=N)N)C(=O)NCC(=O)O)[C@H](C)O)[C@H](C)O` [XG-102]?
Answer: body weight [1]: no effects of XG-102 were observed; AEs possibly or probably related to study treatment as assessed by the Investigator ([2]; 90 μg XG-102 (N = 47)): 18 Total # events; AEs considered by the Investigator to be related to Dexamethasone ([2]; 90 μg XG-102 group): 2 (2.6%) Total # events (%); AEs considered by the Investigator to be related to XG-102 ([2]; 90 μg XG-102 group): 16 (20.5%) Total # events (%); AEs possibly or probably related to study treatment as assessed by the Investigator ([2]; 900 μg XG-102 (N = 48)): 13 Total # events; AEs considered by the Investigator to be related to Dexamethasone ([2]; 900 μg XG-102 group): 1 (1.5%) Total # events (%); AEs considered by the Investigator to be related to XG-102 ([2]; 900 μg XG-102 group): 12 (17.4%) Total # events (%); AEs possibly or probably related to study medication ([2]; XG-102 90 μg): 18 events; Intraocular pressure increased, patients ([2]; XG-102 90 μg): 23%; events in SOC EYE DISORDERS ([2]; XG-102 90 μg): 49 events; events resulting in premature withdrawal of study treatment eye drops ([2]; XG-102 90 μg): 11 events; patients with SAEs ([2]; XG-102 90 μg): 4 patients; patients with events in SOC EYE DISORDERS ([2]; XG-102 90 μg): 26 (55%); percentage of patients with an AE within 24 hours after administration ([2]; XG-102 90 μg): 34%; total number of AEs reported ([2]; XG-102 90 μg): 78; Reported AEs by severity: Mild ([2]; XG-102 90 μg dose group): 55 (70.5%) number of events (% of reported events); Reported AEs by severity: Moderate ([2]; XG-102 90 μg dose group): 6 (7.7%) number of events (% of reported events); Reported AEs by severity: Severe ([2]; XG-102 90 μg dose group): 17 (21.7%) number of events (% of reported events); AEs possibly or probably related to study medication ([2]; XG-102 900 μg): 13 events; Intraocular pressure increased, patients ([2]; XG-102 900 μg): 10%; events in SOC EYE DISORDERS ([2]; XG-102 900 μg): 43 events; events resulting in premature withdrawal of study treatment eye drops ([2]; XG-102 900 μg): 8 events; patients with SAEs ([2]; XG-102 900 μg): 3 patients; patients with events in SOC EYE DISORDERS ([2]; XG-102 900 μg): 24 (50%); percentage of patients with an AE within 24 hours after administration ([2]; XG-102 900 μg): 27%; total number of AEs reported ([2]; XG-102 900 μg): 69; Reported AEs by severity: Mild ([2]; XG-102 900 μg dose group): 49 (71.0%) number of events (% of reported events); Reported AEs by severity: Moderate ([2]; XG-102 900 μg dose group): 12 (17.4%) number of events (% of reported events); Reported AEs by severity: Severe ([2]; XG-102 900 μg dose group): 8 (11.6%) number of events (% of reported events); Eye pain ([2]; XG-102 900 μg vs dexamethasone (p=0.029)): Eye pain was more frequently reported for patients allocated to the XG-102 900 μg group; reaction of subcutaneous tissue at injection (db/db mice; 1 mg/kg): mild nodular fibrosis was observed; reaction of subcutaneous tissue at injection (db/db mice; 10 mg/kg): nodular fibrosis was observed in the subcutaneous tissue; XG-102 concentration in plasma [3]: < 10 ng/mL
